This passage reports T/C results from PubChem BioAssay AID330 (DTP/NCI, 2004).

The test has as its system P388 leukemia ip, CD2F1 mice, survival T/C. Nature of the test: NCI In Vivo Anticancer Drug Screen. Data for tumor model P388 Leukemia (intraperitoneal) in CD2F1 (CDF1) mice. The note with it: endpoint: median survival time, higher = longer survival. An outline of the steps:
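Mice carrying the transplanted tumor received test compound or vehicle. Survival was recorded in each group, and the value is the treated-group measurement divided by that of the vehicle-treated control group.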

The mark [1] stands for this setting: dose: 60.0 mg/kg/injection, schedule: Q01DX005 (ip), vehicle: saline with Tween-80.
Setting [2] is: dose: 120.0 mg/kg/injection, schedule: Q01DX005 (ip), vehicle: saline with Tween-80.
Where [3] appears, read: dose: 240.0 mg/kg/injection, schedule: Q01DX005 (ip), vehicle: saline with Tween-80.
Setting [4] is: dose: 50.0 mg/kg/injection, schedule: Q01DX009 (ip), vehicle: suspension in saline.
Setting [5] is: dose: 100.0 mg/kg/injection, schedule: Q01DX009 (ip), vehicle: suspension in saline.
[6] abbreviates: dose: 200.0 mg/kg/injection, schedule: Q01DX009 (ip), vehicle: suspension in saline.
[7] abbreviates: dose: 100.0 mg/kg/injection, schedule: Q01DX001 (ip), vehicle: saline.
Where [8] appears, read: dose: 200.0 mg/kg/injection, schedule: Q01DX001 (ip), vehicle: saline.
Setting [9] is: dose: 400.0 mg/kg/injection, schedule: Q01DX001 (ip), vehicle: saline.
Where [10] appears, read: dose: 100.0 mg/kg/injection, schedule: Q01DX009 (ip), vehicle: saline with Tween-80.
Where [11] appears, read: dose: 200.0 mg/kg/injection, schedule: Q01DX009 (ip), vehicle: saline with Tween-80.

Where “and” joins values, the source holds several entries; their conditions need not be identical. Equal entries are not always repeated. Inconclusive results and toxic doses are left out.

As for `COc1ccc2c(N/N=C/c3ccc4c(c3)OCO4)cc(C)nc2c1`, the T/C (dose: 1.5 mg/kg/injection, schedule: Q01DX005 (ip), vehicle: Klucel (hydroxypropylcellulose) (HPC)) is 95 % of control; the T/C (dose: 3.0 mg/kg/injection, schedule: Q01DX005 (ip), vehicle: Klucel (hydroxypropylcellulose) (HPC)) is 93 % of control; the T/C (dose: 6.0 mg/kg/injection, schedule: Q01DX005 (ip), vehicle: Klucel (hydroxypropylcellulose) (HPC)) is 95 % of control; the T/C (dose: 6.25 mg/kg/injection, schedule: Q01DX005 (ip), vehicle: Klucel (hydroxypropylcellulose) (HPC)) was 88 % of control; the T/C (dose: 12.5 mg/kg/injection, schedule: Q01DX005 (ip), vehicle: Klucel (hydroxypropylcellulose) (HPC)) is 107 % of control; the T/C (dose: 25.0 mg/kg/injection, schedule: Q01DX005 (ip), vehicle: Klucel (hydroxypropylcellulose) (HPC)) is 88 % of control.

As for `O=C(O)CNC(=O)C(=O)c1c[nH]c2ccc([N+](=O)[O-])cc12`, the T/C is, setting by setting: under setting [1], 97 % of control; under setting [2], 97 % of control; under setting [3], 94 % of control.

In the case of `CC(=O)NCC(O)CNC(C)=O`, the T/C runs as follows: (dose: 6.25 mg/kg/injection, schedule: Q01DX009 (ip), vehicle: saline) 103 % of control; (dose: 12.5 mg/kg/injection, schedule: Q01DX009 (ip), vehicle: saline) 97 % of control; (dose: 25.0 mg/kg/injection, schedule: Q01DX009 (ip), vehicle: saline) 95 % of control.

As to `C=CCCNC(=S)S`, the T/C reads like this: (dose: 60.0 mg/kg/injection, schedule: Q01DX005 (ip), vehicle: saline) 109 % of control; (dose: 120.0 mg/kg/injection, schedule: Q01DX005 (ip), vehicle: saline) 107 % of control; (dose: 240.0 mg/kg/injection, schedule: Q01DX005 (ip), vehicle: saline) 108 % of control.

For the compound `COc1cc(C(NC(N)=O)c2cc3c(cc2O)OCO3)cc(OC)c1O` (stereo not drawn), the T/C is, setting by setting: (dose: 60.0 mg/kg/injection, schedule: Q01DX005 (ip), vehicle: Klucel + Tween-80) 100 % of control; (dose: 120.0 mg/kg/injection, schedule: Q01DX005 (ip), vehicle: Klucel + Tween-80) 88 % of control; (dose: 240.0 mg/kg/injection, schedule: Q01DX005 (ip), vehicle: Klucel + Tween-80) 88 % of control.

As to `CC(C)(N)P(=O)(O)O`, the T/C reads like this: (dose: 25.0 mg/kg/injection, schedule: Q01DX009 (ip), vehicle: suspension in saline) 96 % of control; under setting [4], 92 % of control; under setting [5], 100 % of control; under setting [6], 106 % of control.

Consider `CC(=O)NCC#N`, for which the T/C is, setting by setting: under setting [7], 107 % of control; under setting [8], 102 % of control; under setting [9], 121 % of control.

For `CCCCCCCS(=O)(=O)OCCCCOS(=O)(=O)CCCCCCC`, the T/C (dose: 45.0 mg/kg/injection, schedule: Q01DX005 (ip), vehicle: acetone) was 99 % of control; the T/C (dose: 90.0 mg/kg/injection, schedule: Q01DX005 (ip), vehicle: acetone) was 100 % of control; the T/C (dose: 180.0 mg/kg/injection, schedule: Q01DX005 (ip), vehicle: acetone) is 99 % of control.

For `COP(=O)(OC)O[Si](C)(C)CC[Si](C)(C)Cl`, the T/C is, setting by setting: (dose: 50.0 mg/kg/injection, schedule: Q01DX005 (ip), vehicle: Klucel (hydroxypropylcellulose) (HPC)) 105 % of control; (dose: 100.0 mg/kg/injection, schedule: Q01DX005 (ip), vehicle: Klucel (hydroxypropylcellulose) (HPC)) 105 % of control; (dose: 200.0 mg/kg/injection, schedule: Q01DX005 (ip), vehicle: Klucel (hydroxypropylcellulose) (HPC)) 99 % of control.

In the case of `NC(=S)N/N=C/c1ccc(OC(=O)COc2ccc(Cl)cc2)cn1`, the T/C reads like this: (dose: 3.12 mg/kg/injection, schedule: Q01DX009 (ip), vehicle: saline with Tween-80) 118 % of control; (dose: 6.25 mg/kg/injection, schedule: Q01DX009 (ip), vehicle: saline with Tween-80) 159 % of control; (dose: 12.5 mg/kg/injection, schedule: Q01DX009 (ip), vehicle: saline with Tween-80) 156 % of control and 157 % of control; (dose: 25.0 mg/kg/injection, schedule: Q01DX009 (ip), vehicle: saline with Tween-80) 184 % of control; (dose: 50.0 mg/kg/injection, schedule: Q01DX009 (ip), vehicle: saline with Tween-80) 188 % of control and 189 % of control; under setting [10], 225 % of control and 88 % of control. The T/C under setting [11] is 86 % of control.

On to `O=C(N/C(=C/c1ccc(Cl)cc1Cl)c1nc2ccccc2s1)c1ccccc1`, for which the T/C was 109 % of control (dose: 50.0 mg/kg/injection, schedule: Q01DX005 (ip), vehicle: saline with Tween-80) and 111 % of control (dose: 100.0 mg/kg/injection, schedule: Q01DX005 (ip), vehicle: saline with Tween-80).

As to `NS(=O)(=O)c1ccc(Cl)c(Cl)c1`, the T/C is 90 % of control (dose: 100.0 mg/kg/injection, schedule: Q04DX003 (ip), vehicle: saline with Tween-80); 90 % of control (dose: 200.0 mg/kg/injection, schedule: Q04DX003 (ip), vehicle: saline with Tween-80); 90 % of control (dose: 400.0 mg/kg/injection, schedule: Q04DX003 (ip), vehicle: saline with Tween-80).

`O=C1CC(c2ccc([N+](=O)[O-])cc2)O1` (stereo not drawn): the T/C is 101 % of control under setting [7], 104 % of control under setting [8] and 102 % of control under setting [9].

As to `C[CH2][Sn]([CH2]C)([S]CCS(=O)(=O)O)[S]CCS(=O)(=O)O`, the T/C (dose: 0.93 mg/kg/injection, schedule: Q01DX005 (ip), vehicle: saline) was 95 % of control and the T/C (dose: 1.87 mg/kg/injection, schedule: Q01DX005 (ip), vehicle: saline) was 95 % of control.

Consider `N#[O+].O.O=N[O-].O=N[O-].[NH2-].[NH2-].[Ru+2]`, for which the T/C is, setting by setting: (dose: 12.5 mg/kg/injection, schedule: Q04DX003 (ip), vehicle: water) 110 % of control; (dose: 25.0 mg/kg/injection, schedule: Q04DX003 (ip), vehicle: water) 111 % of control; (dose: 50.0 mg/kg/injection, schedule: Q04DX003 (ip), vehicle: water) 118 % of control; (dose: 100.0 mg/kg/injection, schedule: Q04DX003 (ip), vehicle: water) 111 % of control; (dose: 200.0 mg/kg/injection, schedule: Q04DX003 (ip), vehicle: water) 102 % of control.

Consider `CNC(=O)OCc1c(COC(=O)NC)c(-c2ccc(Sc3ccccc3)cc2)n(C)c1C`, for which the T/C was 154 % of control (dose: 12.5 mg/kg/injection, schedule: Q01DX009 (ip), vehicle: distilled water + Tween-80); 152 % of control (dose: 25.0 mg/kg/injection, schedule: Q01DX009 (ip), vehicle: distilled water + Tween-80); 160 % of control and 162 % of control (dose: 50.0 mg/kg/injection, schedule: Q01DX009 (ip), vehicle: distilled water + Tween-80); 171 % of control and 184 % of control (dose: 100.0 mg/kg/injection, schedule: Q01DX009 (ip), vehicle: distilled water + Tween-80); 108 % of control (dose: 200.0 mg/kg/injection, schedule: Q01DX009 (ip), vehicle: distilled water + Tween-80).

On to `COc1ccc(N2C(N)=NC(N)=NC2(C)C)cc1`, for which the T/C was 93 % of control (dose: 6.25 mg/kg/injection, schedule: Q01DX005 (ip), vehicle: saline with Tween-80); 102 % of control (dose: 12.5 mg/kg/injection, schedule: Q01DX005 (ip), vehicle: saline with Tween-80); 107 % of control (dose: 25.0 mg/kg/injection, schedule: Q01DX005 (ip), vehicle: saline with Tween-80).

Take `S=C(Nc1ccc(Br)c(Cl)c1)SCc1ccc2c(c1)OCO2`: the T/C is 121 % of control (dose: 25.0 mg/kg/injection, schedule: Q01DX009 (ip), vehicle: Klucel (hydroxypropylcellulose) (HPC)); 107 % of control (dose: 50.0 mg/kg/injection, schedule: Q01DX009 (ip), vehicle: Klucel (hydroxypropylcellulose) (HPC)); 105 % of control under setting [4]; 123 % of control (dose: 100.0 mg/kg/injection, schedule: Q01DX009 (ip), vehicle: Klucel (hydroxypropylcellulose) (HPC)); 104 % of control under setting [5]; 116 % of control under setting [6].

On to `CC/S(=N\S(=O)(=O)c1ccc(C)cc1)c1ccccc1` (stereo not drawn), for which the T/C was 100 % of control under setting [10]; 109 % of control under setting [11]; 100 % of control (dose: 400.0 mg/kg/injection, schedule: Q01DX009 (ip), vehicle: saline with Tween-80).

Regarding `COC(=O)CCCCC1=CCC2C(=O)C=C(O)C2C1` (stereo not drawn), the T/C runs as follows: under setting [1], 87 % of control; under setting [2], 106 % of control; under setting [3], 116 % of control.
